Experimental data taken from patent US10751285B1, “Synthesis of C resorcinarene based novel amphiphilic supramolecular macrocycle as nano-scale drug loading system” (priority 2019, dated 2020).

Test: Critical micelle concentration (CMC) by UV-visible spectrophotometer
Assay type: physicochemical
Conditions: in methanol; absorbance at 283 nm; 0.001-0.09 mM range
Description: CMC of the synthesized resorcinarene based amphiphilic supramolecular macrocycle was investigated in methanol using UV-visible spectrophotometer. Amphiphile methanolic solutions in 0.001-0.09 mM range were read on UV-visible spectrophotometer, giving characteristic absorbance at 283 nm.

- CMC: 0.04 mM
Structure (SMILES): CCCCCCCCCCCCCCCCOc1ccc(C2c3cc(c(O)cc3O)C(c3ccc(OCCCCCCCCCCCCCCCC)cc3)c3cc(c(O)cc3O)C(c3ccc(OCCCCCCCCCCCCCCCC)cc3)c3cc(c(O)cc3O)C(c3ccc(OCCCCCCCCCCCCCCCC)cc3)c3cc2c(O)cc3O)cc1 (stereo not shown) [ASRM]
